Laboratory results published in patent US10271734B2, “Photoacoustic apparatus” (CANON KABUSHIKI KAISHA, priority 2015, dated 2019).

How the values were obtained:
[1] = Temporal change in blood ICG concentration after tail vein injection into a nude mouse (FIG. 2); format: in vivo; settings: ICG 20 nanomoles
Description: FIG. 2 is a diagram illustrating a temporal change in the concentration of the contrast agent 1012 in the blood when ICG (20 nanomoles) which is the contrast agent 1012 was injected into a tail vein of a nude mouse. The vertical axis of FIG. 2 represents the blood ICG concentration and the horizontal axis represents the time elapsed after the contrast agent 1012 was injected to the nude mouse.

[2] = J Clin Invest., 1960 April, 39(4): p. 592-600; cited from earlier work

SMILES: CC1(C)C(/C=C/C=C/C=C/C=C2\N(CCCCS(=O)(=O)O)c3ccc4ccccc4c3C2(C)C)=[N+](CCCCS(=O)(=O)[O-])c2ccc3ccccc3c21 [ICG, Indocyanine green]
- time after injection within which the concentration of ICG present in the blood decreases to a half or smaller [1]: ≤ 10 min
- half-life of ICG in the blood [2]: approximately 3 minutes
